Laboratory results published in US9434763B2, “Derivatives of pyridinone as inhibitors for tissue transglutaminase” (ZEDIRA GMBH, priority 2012, dated 2016).

Molecular target: T1, TG2 in tissue sections (Mus musculus, UniProt P21981)
T1 construct: from tissue; host or cells: mouse small intestine cryosections (mucosa)
T1 sequence (P21981 1-686): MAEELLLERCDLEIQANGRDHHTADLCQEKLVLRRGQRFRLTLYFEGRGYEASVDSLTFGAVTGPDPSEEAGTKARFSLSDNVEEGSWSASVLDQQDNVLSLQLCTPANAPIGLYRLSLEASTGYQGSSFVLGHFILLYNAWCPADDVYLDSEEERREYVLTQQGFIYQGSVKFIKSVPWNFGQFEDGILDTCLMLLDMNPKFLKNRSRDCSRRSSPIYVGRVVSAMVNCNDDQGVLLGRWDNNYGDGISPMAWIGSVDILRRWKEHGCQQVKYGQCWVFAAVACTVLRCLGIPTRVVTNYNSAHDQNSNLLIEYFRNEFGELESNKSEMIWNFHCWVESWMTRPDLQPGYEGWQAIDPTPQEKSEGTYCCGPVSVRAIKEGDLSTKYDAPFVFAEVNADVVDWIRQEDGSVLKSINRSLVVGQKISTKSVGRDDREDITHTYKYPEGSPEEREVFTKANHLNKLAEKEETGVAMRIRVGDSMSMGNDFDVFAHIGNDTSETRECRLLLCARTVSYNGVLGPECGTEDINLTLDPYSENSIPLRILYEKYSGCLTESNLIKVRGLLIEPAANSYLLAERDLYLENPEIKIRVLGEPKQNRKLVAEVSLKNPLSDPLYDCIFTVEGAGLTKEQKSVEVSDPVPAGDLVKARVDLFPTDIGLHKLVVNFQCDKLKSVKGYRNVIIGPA
Assay: Ex vivo testing of inhibitors on small intestine sections of a control mouse
Settings: pre-incubated with 0.2 mg/ml and 0.02 mg/ml inhibitor
Procedure: After a washing step (1% BSA in PBS buffer), incubation was carried out with 4 μg/ml of the TG2 substrate biotinyl-TVQQEL (Zedira, product number B001) in the presence of 5 mM CaCl2 for 2 h at room temperature. The reaction was stopped with 25 mM EDTA. After one further washing, blocking, and washing step, the primary antibody against human TG2 was added (Zedira, product number A018, 25 μg/ml) and incubated for one hour at room temperature. After four wash steps, streptavidin-FITC (2 μg/ml, streptavidin-fluorescein-isothiocyanate) and Cy3-labeled goat anti-rabbit IgG antibodies (22.5 μg/ml) were added and incubated in the dark at room temperature for 40 min. TG2 was thus visible in the fluorescence microscope as red color (Cy3), whereas biotinyl-TVQQEL incorporated by transglutaminase activity was visualized by green staining (FITC). The superposition of both images led to a yellow color when active transglutaminase was present.
[…] Then the staining protocol as described in example 10 was carried out. In the control sections with 0.0 mg/ml inhibitor yellow staining in the mucosa of the small intestinal was detected, which is due to active TG2.

| SMILES | TG2 inhibition in sections at the higher concentrations of inhibitor |
| --- | --- |
| CC[C@@H](C)[C@H](NC(=O)Cn1cccc(NC(=O)[C@H](CC/C=C/C(=O)OC)NC(=O)c2ccccc2)c1=O)C(=O)O [A61, (2S,3R)-2-(2-(3-((S,E)-2-benzamido-7-methoxy-7-oxohept-5-enamido)-2-oxopyridin-1(2H)-yl)acetamido)-3-methylpentanoic acid] | completely inhibited |
| CCC(CC)CNC(=O)Cn1cccc(NC(=O)[C@H](CC/C=C/C(=O)OC)NC(=O)c2cncn2C)c1=O [A63, (S,E)-Methyl 7-(1-(2-(2-ethylbutylamino)-2-oxoethyl)-2-oxo-1,2-dihydropyridin-3-ylamino)-6-(1-methyl-1H-imidazole-5-carboxamido)-7-oxohept-2-enoate] | completely inhibited |
